test system: HCT116 colorectal cancer cells; experiment: Cisplatin sensitization assay (96 h MTS cell viability); type: cell-based; conditions: Cisplatin sensitization value;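 also: compound concentration needed to lower the IC50 of Cisplatin alone by a set fold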
How it was run: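 The MTS viability read, after 1 h with reagent, followed 96 h of co-treatment at 37° C. in 5% CO2. Both compound and cisplatin were titrated 2-fold from a 10 μM top final concentration in a complete concentration matrix on HCT116 cells. Scores +++/++/+ reflect cisplatin sensitization value ranges.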

SMILES | Cisplatin Sensitization Assay
Cc1cncc(NC(=O)c2c(N)nn3cc(Cl)cnc23)c1N1CCN(C)CC1 [I-N-57, 2-amino-6-chloro-N-(5-methyl-4-(4-methylpiperazin-1-yl)pyridin-3-yl)pyrazolo[1,5-a]pyrimidine-3-carboxamide] | +++ (Compounds with a Cisplatin sensitization value of <0.02 μM are marked with “+++.”)
Nc1nn2cc(Cl)cnc2c1C(=O)Nc1cnccc1N1CCC(N2CCn3cncc3C2)CC1 [I-N-101, 2-amino-6-chloro-N-(4-(4-(5,6-dihydroimidazo[1,5-a]pyrazin-7(8H)-yl)piperidin-1-yl)pyridin-3-yl)pyrazolo[1,5-a]pyrimidine-3-carboxamide] | ++ (Compounds with a Cisplatin sensitization value >0.02 μM but <0.2 μM are marked with “++.”)
CN(C)C1CN(C2CCN(c3ccncc3NC(=O)c3c(N)nn4cc(Cl)cnc34)CC2)C1 [I-N-94, 2-amino-6-chloro-N-(4-(4-(3-(dimethylamino)azetidin-1-yl)piperidin-1-yl)pyridin-3-yl)pyrazolo[1,5-a]pyrimidine-3-carboxamide] | +++ (Compounds with a Cisplatin sensitization value of <0.02 μM are marked with “+++.”)
CN(C)C(=O)C1CCN(c2ccncc2NC(=O)c2c(N)nn3cc(F)cnc23)CC1 [I-G-2, 2-amino-N-(4-(4-(dimethylcarbamoyl)piperidin-1-yl)pyridin-3-yl)-6-fluoropyrazolo[1,5-a]pyrimidine-3-carboxamide] | +++ (Compounds with a Cisplatin sensitization value of <0.02 μM are marked with “+++.”)
Nc1nn2cc(Cl)cnc2c1C(=O)Nc1cnccc1O[C@H]1C[C@]2(CCN2)C1 [I-O-78, N-(4-((4s,6r)-1-azaspiro[3.3]heptan-6-yloxy)pyridin-3-yl)-2-amino-6-chloropyrazolo[1,5-a]pyrimidine-3-carboxamide] | + (Compounds with a Cisplatin sensitization value >0.2 μM but <5 μM are marked with “+.”)
CN1CCc2c(cncc2NC(=O)c2c(N)nn3cc(F)cnc23)C1 [I-C-8, 2-amino-6-fluoro-N-(7-methyl-5,6,7,8-tetrahydro-2,7-naphthyridin-4-yl)pyrazolo[1,5-a]pyrimidine-3-carboxamide] | + (Compounds with a Cisplatin sensitization value >0.2 μM but <5 μM are marked with “+.”)
N#CC1CN(C(=O)C2CCN(c3c(F)cncc3NC(=O)c3c(N)nn4cc(F)cnc34)CC2)C1 [I-G-76, 2-amino-N-(4-(4-(3-cyanoazetidine-1-carbonyl)piperidin-1-yl)-5-fluoropyridin-3-yl)-6-fluoropyrazolo[1,5-a]pyrimidine-3-carboxamide] | +++ (Compounds with a Cisplatin sensitization value of <0.02 μM are marked with “+++.”)
Nc1nn2cc(F)cnc2c1C(=O)Nc1cnccc1N1CCN2C(=O)CC[C@H]2C1 [I-N-217, (S)-2-amino-6-fluoro-N-(4-(6-oxohexahydropyrrolo[1,2-a]pyrazin-2(1H)-yl)pyridin-3-yl)pyrazolo[1,5-a]pyrimidine-3-carboxamide] | ++ (Compounds with a Cisplatin sensitization value >0.02 μM but <0.2 μM are marked with “++.”)
CN1CCN(c2ccncc2NC(=O)c2c(N)nn3cc(C(C)(C)C#N)cnc23)CC1 [I-N-76, 2-amino-6-(2-cyanopropan-2-yl)-N-(4-(4-methylpiperazin-1-yl)pyridin-3-yl)pyrazolo[1,5-a]pyrimidine-3-carboxamide] | +++ (Compounds with a Cisplatin sensitization value of <0.02 μM are marked with “+++.”)
Cc1nccn1-c1ccncc1NC(=O)c1c(N)nn2cc(F)cnc12 [I-N-28, 2-amino-6-fluoro-N-(4-(2-methyl-1H-imidazol-1-yl)pyridin-3-yl)pyrazolo[1,5-a]pyrimidine-3-carboxamide] | +++ (Compounds with a Cisplatin sensitization value of <0.02 μM are marked with “+++.”)
CC(C)N1CCC(C(=O)N2CCN(c3c(F)cncc3NC(=O)c3c(N)nn4cc(F)cnc34)CC2)C1 (centres unmarked) [I-N-206, 2-amino-6-fluoro-N-(5-fluoro-4-(4-(1-isopropylpyrrolidine-3-carbonyl)piperazin-1-yl)pyridin-3-yl)pyrazolo[1,5-a]pyrimidine-3-carboxamide] | +++ (Compounds with a Cisplatin sensitization value of <0.02 μM are marked with “+++.”)
Cc1nc(C(F)(F)F)cn1-c1ccncc1NC(=O)c1c(N)nn2cc(F)cnc12 [I-N-30, 2-amino-6-fluoro-N-(4-(2-methyl-4-(trifluoromethyl)-1H-imidazol-1-yl)pyridin-3-yl)pyrazolo[1,5-a]pyrimidine-3-carboxamide] | ++ (Compounds with a Cisplatin sensitization value >0.02 μM but <0.2 μM are marked with “++.”)
Cc1ncn(-c2ccncc2NC(=O)c2c(N)nn3cc(F)cnc23)n1 [I-N-161, 2-amino-6-fluoro-N-(4-(3-methyl-1H-1,2,4-triazol-1-yl)pyridin-3-yl)pyrazolo[1,5-a]pyrimidine-3-carboxamide] | + (Compounds with a Cisplatin sensitization value >0.2 μM but <5 μM are marked with “+.”)
Nc1nn2cc(Cl)cnc2c1C(=O)Nc1cnccc1N1CCn2ccnc2C1 [I-N-44, 2-amino-6-chloro-N-(4-(5,6-dihydroimidazo[1,2-a]pyrazin-7(8H)-yl)pyridin-3-yl)pyrazolo[1,5-a]pyrimidine-3-carboxamide] | ++ (Compounds with a Cisplatin sensitization value >0.02 μM but <0.2 μM are marked with “++.”)
CN1CCC(Oc2c(F)cncc2NC(=O)c2c(N)nn3cc(F)cnc23)CC1 [I-O-89, 2-amino-6-fluoro-N-(5-fluoro-4-((1-methylpiperidin-4-yl)oxy)pyridin-3-yl)pyrazolo[1,5-a]pyrimidine-3-carboxamide] | ++ (Compounds with a Cisplatin sensitization value >0.02 μM but <0.2 μM are marked with “++.”)
CN(C)C1CCN(C2CCN(c3ccncc3NC(=O)c3c(N)nn4cc(Cl)cnc34)CC2)C1 (centres unmarked) [I-N-106, 2-amino-6-chloro-N-(4-(4-(3-(dimethylamino)pyrrolidin-1-yl)piperidin-1-yl)pyridin-3-yl)pyrazolo[1,5-a]pyrimidine-3-carboxamide] | +++ (Compounds with a Cisplatin sensitization value of <0.02 μM are marked with “+++.”)
COC1CN(C(=O)C2CCN(c3c(F)cncc3NC(=O)c3c(N)nn4cc(F)cnc34)CC2)C1 [I-G-21, 2-amino-6-fluoro-N-(5-fluoro-4-(4-(3-methoxyazetidine-1-carbonyl)piperidin-1-yl)pyridin-3-yl)pyrazolo[1,5-a]pyrimidine-3-carboxamide] | +++ (Compounds with a Cisplatin sensitization value of <0.02 μM are marked with “+++.”)
Nc1nn2cc(Cl)cnc2c1C(=O)Nc1cnccc1O[C@@H]1CCOC1 [I-O-54, (R)-2-amino-6-chloro-N-(4-((tetrahydrofuran-3-yl)oxy)pyridin-3-yl)pyrazolo[1,5-a]pyrimidine-3-carboxamide] | +++ (Compounds with a Cisplatin sensitization value of <0.02 μM are marked with “+++.”)
Nc1nn2cc(Cl)cnc2c1C(=O)Nc1cnccc1O[C@H]1CCOC1 [I-O-58, (S)-2-amino-6-chloro-N-(4-((tetrahydrofuran-3-yl)oxy)pyridin-3-yl)pyrazolo[1,5-a]pyrimidine-3-carboxamide] | +++ (Compounds with a Cisplatin sensitization value of <0.02 μM are marked with “+++.”)
CCN1CCN(c2ccncc2NC(=O)c2c(N)nn3cc(F)cnc23)CC1 [I-N-17, 2-amino-N-(4-(4-ethylpiperazin-1-yl)pyridin-3-yl)-6-fluoropyrazolo[1,5-a]pyrimidine-3-carboxamide] | +++ (Compounds with a Cisplatin sensitization value of <0.02 μM are marked with “+++.”)
CN1C[C@@H]2CCN(c3ccncc3NC(=O)c3c(N)nn4cc(F)cnc34)C[C@@H]2C1=O [I-N-224, 2-amino-6-fluoro-N-(4-((3aR,7aR)-2-methyl-3-oxohexahydro-1H-pyrrolo[3,4-c]pyridin-5(6H)-yl)pyridin-3-yl)pyrazolo[1,5-a]pyrimidine-3-carboxamide] | + (Compounds with a Cisplatin sensitization value >0.2 μM but <5 μM are marked with “+.”)
Nc1nn2cc(F)cnc2c1C(=O)Nc1cncc(F)c1N1CCC(C(=O)N2CC(N3CCC3)C2)CC1 [I-G-49, N-(4-(4-([1,3′-biazetidine]-1′-carbonyl)piperidin-1-yl)-5-fluoropyridin-3-yl)-2-amino-6-fluoropyrazolo[1,5-a]pyrimidine-3-carboxamide] | +++ (Compounds with a Cisplatin sensitization value of <0.02 μM are marked with “+++.”)
Nc1nn2cc(F)cnc2c1C(=O)Nc1cncc(F)c1N1CCN2C(=O)CCCC2C1 (centres unmarked) [I-N-277, 2-amino-6-fluoro-N-(5-fluoro-4-(6-oxohexahydro-1H-pyrido[1,2-a]pyrazin-2(6H)-yl)pyridin-3-yl)pyrazolo[1,5-a]pyrimidine-3-carboxamide] | +++ (Compounds with a Cisplatin sensitization value of <0.02 μM are marked with “+++.”)
CN1CCC(Oc2ccncc2NC(=O)c2c(N)nn3cc(F)cnc23)CC1 [I-O-12, 2-amino-6-fluoro-N-(4-((1-methylpiperidin-4-yl)oxy)pyridin-3-yl)pyrazolo[1,5-a]pyrimidine-3-carboxamide] | +++ (Compounds with a Cisplatin sensitization value of <0.02 μM are marked with “+++.”)
C[C@@H]1CN(C(=O)C2CCN(c3c(F)cncc3NC(=O)c3c(N)nn4cc(F)cnc34)CC2)CCN1C [I-G-50, (R)-2-amino-N-(4-(4-(3,4-dimethylpiperazine-1-carbonyl)piperidin-1-yl)-5-fluoropyridin-3-yl)-6-fluoropyrazolo[1,5-a]pyrimidine-3-carboxamide] | +++ (Compounds with a Cisplatin sensitization value of <0.02 μM are marked with “+++.”)
CN1CC2(CCC1=O)CCN(c1ccncc1NC(=O)c1c(N)nn3cc(F)cnc13)CC2 [I-N-231, 2-amino-6-fluoro-N-(4-(2-methyl-3-oxo-2,9-diazaspiro[5.5]undecan-9-yl)pyridin-3-yl)pyrazolo[1,5-a]pyrimidine-3-carboxamide] | +++ (Compounds with a Cisplatin sensitization value of <0.02 μM are marked with “+++.”)
